Measured values: US7220732B2, “Compounds useful as photodynamic therapeutic agents” (priority 2002, dated 2007)

System: MRC5 cells
Assay: Fluorescence microscopy uptake study in MRC5 cells
Assay type: cell-based
Settings: 10^−5 M
Procedure: Cells were seeded at a density of 30,000 cells/well in chamber slides and allowed to adhere for 24 hr. A compound of the present invention (10^−5 M) was then added to each chamber and incubated at 37° C. in the dark over time, for example, 15 min, 30 min, 1 hr, 3 hr and 6 hr. The medium was removed after the specified time and the cells were washed 4 times with medium free of that compound of the invention. The cells were then fixed with 3.7% (v/v) formaldehyde for 15 min at 37° C. The fixative solution was removed and the cells were washed twice with sterile PBS. DAPI nuclear stain (1/1000) was then incubated with the cells for 10 is min at 37° C., following which the cells were washed twice with PBS. Cells were then mounted in Vectashield (Trade Mark) mounting medium.
LabWorks (Bioimaging Systems) was used to calculate the average fluorescence intensity per cell for each of the different time points used in the uptake and efflux studies for the compounds of the present invention. […] The DAPI filter was used to accurately count the number of cells in each field of view and the rhodamine filter was used to quantify the fluorescence of the compounds of the present invention.
Using the assay method set out above under the heading “Fluorescence Microscopy”, the uptake of 2a was examined for HeLa and MRC5 […] cell lines and the data are illustrated in FIGS. 6a and 6b, respectively. […]

F[B-]1(F)n2c(-c3ccccc3)cc(-c3ccccc3)c2N=C2C(c3ccccc3)=CC(c3ccccc3)=[N+]21 [Compound 2a]
time of maximum uptake: 200 min
